Among the data in patent US8648076B2, “Cysteine protease inhibitors and their therapeutic applications” (Hybrigenics SA, priority 2005, dated 2014) are IC50 values, retold here.

Type in all cases: biochemical
In one test the target is T1, USP7 (Homo sapiens, UniProt Q93009).
T1 construct: His tag (from pFastBac-HT vector) (N); made in house; host or cells: insect cells (Sf9 or High Five), baculovirus
Briefly: USP7 activity assay.

The target of a further test is Cathepsin B (Homo sapiens, UniProt P07858). Put plainly: Cathepsin B activity assay. Particulars: 36 μM z-RR-AMC, 3.6 nM enzyme, 30 min pre-incubation at 25° C., 60 min at 37° C.; sigmoidal fit; AF: Autofluorescent; read-out: cathepB (inhibition of cysteine protease activity). On the procedure: Cathepsin B was diluted in Cathepsin B buffer (20 mM Tris HCl pH 6.8; 1 mM EDTA; 1 mM DTT). Compounds stocks (100 mM) were stored at −20° C. in DMSO. […] Reactions were performed as duplicates in Black LJL 96 well plates (HE microplates; Molecular Devices; 20 μl final reaction volume). The substrate concentration for cathepsin B specificity assay was 36 μM (z-RR-AMC; Calbiochem). The concentration of the enzyme (Cathepsin B) in specificity assays was 3.6 nM. The concentrations were determined in order to perform specificity assays under initial velocities at fixed substrate concentration. Compounds were pre-incubated with enzymes for 30 minutes at 25° C. Reactions were initiated by addition of substrate to the plates containing the enzymes (+/− compounds) diluted in assay buffer. Reactions were incubated for 60 minutes at 37° C. Reactions were stopped by adding acetic acid (100 mM final). Readings were performed on a Pherastar Fluorescent Reader (BMG). δ Emission 380 nm; 6 Excitation=460 nm. Data (mean values+/− standard deviation) were analyzed as % of control (no compound) and plotted as percentage versus the Log of the compound concentration using GraphPad (Prism). Data were fitted to a sigmoidal model (variable slope).

The target in a further test is T2, USP5 (Homo sapiens, UniProt P45974).
T2 sequence (P45974 1-858): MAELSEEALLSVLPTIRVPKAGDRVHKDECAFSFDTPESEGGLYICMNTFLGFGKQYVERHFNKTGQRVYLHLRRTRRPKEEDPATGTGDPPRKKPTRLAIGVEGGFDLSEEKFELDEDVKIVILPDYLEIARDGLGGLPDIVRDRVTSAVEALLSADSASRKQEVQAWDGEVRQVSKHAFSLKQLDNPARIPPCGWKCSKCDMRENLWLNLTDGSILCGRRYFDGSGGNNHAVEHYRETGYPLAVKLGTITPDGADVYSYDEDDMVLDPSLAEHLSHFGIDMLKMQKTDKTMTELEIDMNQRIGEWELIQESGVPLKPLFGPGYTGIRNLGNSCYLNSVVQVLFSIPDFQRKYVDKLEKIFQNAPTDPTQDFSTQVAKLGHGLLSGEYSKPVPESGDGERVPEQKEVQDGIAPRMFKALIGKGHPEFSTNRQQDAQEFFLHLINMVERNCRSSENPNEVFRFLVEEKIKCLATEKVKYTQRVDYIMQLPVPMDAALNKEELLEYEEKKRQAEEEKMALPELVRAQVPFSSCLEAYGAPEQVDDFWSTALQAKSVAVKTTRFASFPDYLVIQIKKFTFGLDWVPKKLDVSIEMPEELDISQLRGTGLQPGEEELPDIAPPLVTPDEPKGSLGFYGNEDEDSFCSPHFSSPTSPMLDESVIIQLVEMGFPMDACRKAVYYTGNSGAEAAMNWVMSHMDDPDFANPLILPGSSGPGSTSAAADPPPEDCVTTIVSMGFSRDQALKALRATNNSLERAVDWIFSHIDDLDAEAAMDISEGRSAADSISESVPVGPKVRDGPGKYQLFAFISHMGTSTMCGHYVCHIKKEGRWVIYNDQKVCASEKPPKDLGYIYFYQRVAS
Put plainly: USP5 activity assay. The note with it: 400 nM Ub-AMC, 300 pM enzyme, 30 min pre-incubation at 25° C., 60 min at 37° C.; sigmoidal fit; AF: Autofluorescent; read-out: USP 5 (inhibition of cysteine protease activity). On the procedure:
Bovine Serum Albumin 0.05 mg·ml^−1 pH7.6). Compounds stocks (100 mM) were stored at −20° C. in DMSO. […] Reactions were performed as duplicates in Black LJL 96 well plates (HE microplates; Molecular Devices; 20 μl final reaction volume). The substrate concentration for USP5 was 400 nM Ub-AMC (Boston Biochem). The concentrations of the enzyme (USP5) in specificity assays was 300 pM. The concentrations were determined in order to perform specificity assays under initial velocities at fixed substrate concentration. Compounds were pre-incubated with enzymes for 30 minutes at 25° C. Reactions were initiated by addition of substrate to the plates containing the enzymes (+/− compounds) diluted in assay buffer. Reactions were incubated for 60 minutes at 37° C. Reactions were stopped by adding acetic acid (100 mM final). Readings were performed on a Pherastar Fluorescent Reader (BMG). λ Emission 380 nm; λ Excitation=460 nm. Data (mean values +/− standard deviation) were analyzed as % of control (no compound) and plotted as percentage versus the Log of the compound concentration using GraphPad (Prism). Data were fitted to a sigmoidal model (variable slope).

The structures appear in SMILES notation. pIC50: −log10 of the molar value. Some results are limits rather than exact numbers.

T1 sequence (Q93009 whole entry): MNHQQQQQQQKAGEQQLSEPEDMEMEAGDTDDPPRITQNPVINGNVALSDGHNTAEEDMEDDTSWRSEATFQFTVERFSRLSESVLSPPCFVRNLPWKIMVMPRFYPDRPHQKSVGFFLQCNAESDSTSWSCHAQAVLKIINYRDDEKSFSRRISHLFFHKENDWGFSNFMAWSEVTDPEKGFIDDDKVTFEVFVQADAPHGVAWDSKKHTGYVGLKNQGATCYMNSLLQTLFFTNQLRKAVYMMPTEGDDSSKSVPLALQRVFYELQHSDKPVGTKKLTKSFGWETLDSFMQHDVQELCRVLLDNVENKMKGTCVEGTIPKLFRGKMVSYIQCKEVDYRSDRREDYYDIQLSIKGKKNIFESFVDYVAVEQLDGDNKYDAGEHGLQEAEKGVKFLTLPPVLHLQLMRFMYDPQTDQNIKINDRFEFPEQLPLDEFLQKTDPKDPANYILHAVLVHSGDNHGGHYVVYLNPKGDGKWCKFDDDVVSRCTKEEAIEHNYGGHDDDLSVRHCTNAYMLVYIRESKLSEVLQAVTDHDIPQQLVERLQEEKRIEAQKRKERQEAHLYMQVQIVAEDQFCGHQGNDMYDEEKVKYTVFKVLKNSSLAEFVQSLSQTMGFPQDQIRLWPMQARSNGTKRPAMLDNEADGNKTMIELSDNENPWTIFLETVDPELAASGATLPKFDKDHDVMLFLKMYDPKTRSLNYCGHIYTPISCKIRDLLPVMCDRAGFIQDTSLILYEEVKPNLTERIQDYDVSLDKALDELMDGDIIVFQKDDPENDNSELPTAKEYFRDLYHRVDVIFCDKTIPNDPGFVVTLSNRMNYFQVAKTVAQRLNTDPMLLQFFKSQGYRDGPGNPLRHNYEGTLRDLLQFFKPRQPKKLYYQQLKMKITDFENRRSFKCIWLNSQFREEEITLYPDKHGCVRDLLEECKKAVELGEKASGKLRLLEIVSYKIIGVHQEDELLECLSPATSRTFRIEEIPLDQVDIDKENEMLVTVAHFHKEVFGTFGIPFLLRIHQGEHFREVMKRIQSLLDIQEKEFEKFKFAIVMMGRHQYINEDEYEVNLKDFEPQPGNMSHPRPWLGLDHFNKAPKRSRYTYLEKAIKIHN

For `CCON=C1c2ccccc2-c2nc(C(N)=O)c(C#N)nc21` [Example 34b, 2-Cyano-9-ethoxyimino-9H-indeno[1,2-b]pyrazine-3-carboxylic acid amide], the values for the pIC50 at USP7, at Cathepsin B and on USP5 were 5.60, under 4.00 and 6.28, respectively.

Consider `COCCON=C1c2ccccc2-c2nc(C(N)=O)c(C#N)nc21` [Example 34c, 2-Cyano-9-(2-methoxy-ethoxyimino)-9H-indeno[1,2-b]pyrazine-3-carboxylic acid amide], for which the pIC50 at USP7 is 5.54; on Cathepsin B, under 4.00; on USP5, 6.22.

For `CON=C1c2ccccc2-c2nc(C(N)=O)c(C#N)nc21` [Example 34d, 2-Cyano-9-methoxyimino-9H-indeno[1,2-b]pyrazine-3-carboxylic acid amide], the pIC50 is 6.40 at USP7, 5.95 at Cathepsin B and 6.95 on USP5.

With `N#Cc1nc2c(nc1O)-c1ccc(Cl)cc1C2=O` [Example 42, 7-chloro-3-hydroxy-9-oxo-9H-indeno[1,2-b]pyrazine-2-carbonitrile], the pIC50 on USP7, on Cathepsin B and on USP5 was under 4.00 each time.

Regarding `N#Cc1nc2c(nc1C#N)-c1ccc(Cl)cc1C2=NNC(N)=O` [Example 43, 9-[(aminocarbonyl)hydrazono]-7-chloro-9H-indeno[1,2-b]pyrazine-2,3-dicarbonitrile], the pIC50 on USP7, at Cathepsin B and at USP5 was under 4.00 each time.
